Experimental data: ChEMBL document CHEMBL1201862, “PubChem BioAssay data set” (2004)
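Step 1: Grow cells in 96-well plates. Step 2: Expose to compound for 48 hours at 5 concentrations. Step 3: Interpolate endpoints linearly; if unreached, use highest concentration. GI50 = concentration required for 50% inhibition of growth.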 Calls of active or inactive are those of the source. No stated cut-off is given here; in the data, active = GI50 up to about 1.1 µM and inactive = higher.

Experiments:
Assay in all cases: NCI-60 cell line screen, 48 h
Malme-3M = tested on: Malme-3M
LOX IMVI = tested on: LOX IMVI
A549 = tested on: A549
HCT-15 = tested on: HCT-15
HCT-116 = tested on: HCT-116
HL-60 = tested on: HL-60
CAKI-1 = tested on: CAKI-1
HT-29 = tested on: HT-29
HOP-62 = tested on: HOP-62
UACC-62 = tested on: UACC-62
OVCAR-8 = tested on: OVCAR-8
SR = tested on: SR
COLO 205 = tested on: COLO 205
Hs-578T = tested on: Hs-578T
RXF 393 = tested on: RXF 393
SK-MEL-2 = tested on: SK-MEL-2
MOLT-4 = tested on: MOLT-4
KM12 = tested on: KM12
HOP-92 = tested on: HOP-92
IGROV-1 = tested on: IGROV-1

Row | SMILES | GI50 (Malme-3M) | GI50 (LOX IMVI) | GI50 (A549) | GI50 (HCT-15) [µM] | GI50 (HCT-116) | GI50 (HL-60) | GI50 (CAKI-1) | GI50 (HT-29) | GI50 (HOP-62) | GI50 (UACC-62) | GI50 (OVCAR-8) | GI50 (SR) | GI50 (COLO 205) | GI50 (Hs-578T) | GI50 (RXF 393) | GI50 (SK-MEL-2) | GI50 (MOLT-4) | GI50 (KM12) | GI50 (HOP-92) | GI50 (IGROV-1)
1 | CN(NC(=O)/C(=C/c1ccc(Cl)cc1)NC(=O)c1ccccc1)c1cn[nH]c(=O)c1Cl | 54.5 µM (inactive) | 62.7 µM (inactive) | > 100 µM (inactive) | > 100 | > 100 µM (inactive) | 12.7 µM (inactive) | > 100 µM (inactive) | > 100 µM (inactive) | 47 µM (inactive) | 97.1 µM (inactive) | 46.9 µM (inactive) | > 100 µM (inactive) | > 100 µM (inactive) | > 100 µM (inactive) | > 100 µM (inactive) | > 100 µM (inactive) | 19.9 µM (inactive) | 55.1 µM (inactive) | > 100 µM (inactive) | 41.4 µM (inactive)
2 | COC(=O)C1Cc2cc3c(cc2C1)CCC3 | > 100 µM (inactive) | > 100 µM (inactive) | > 100 µM (inactive) | > 100 | > 100 µM (inactive) | > 100 µM (inactive) | > 100 µM (inactive) | 68.9 µM (inactive) | > 100 µM (inactive) | > 100 µM (inactive) | > 100 µM (inactive) | > 100 µM (inactive) | > 100 µM (inactive) | > 100 µM (inactive) | > 100 µM (inactive) | > 100 µM (inactive) | > 100 µM (inactive) | > 100 µM (inactive) | 34 µM (inactive) | > 100 µM (inactive)
3 | O=C1/C(=C/c2ccccc2)CCc2ccc([N+](=O)[O-])cc21 | 46.8 µM (inactive) | 21.5 µM (inactive) | > 100 µM (inactive) | 39.7 | 24.4 µM (inactive) | 1.86 µM (inactive) | > 100 µM (inactive) | > 100 µM (inactive) | > 71.3 µM (inactive) | 31 µM (inactive) | 82.6 µM (inactive) | 4.26 µM (inactive) | > 100 µM (inactive) | 37.4 µM (inactive) | 23.8 µM (inactive) | 13.6 µM (inactive) | 10.8 µM (inactive) | 42.3 µM (inactive) | 81.5 µM (inactive) | 72.9 µM (inactive)
4 | COc1cccc(C2c3cc4c(cc3OC(N3CCCCC3)C2C)OCO4)c1O (stereo not given) | 4.53 µM (inactive) | 5.21 µM (inactive) | 6.52 µM (inactive) | 4.21 | 4.89 µM (inactive) | 2.54 µM (inactive) | 5.48 µM (inactive) | 3.43 µM (inactive) | 4.11 µM (inactive) | 5.92 µM (inactive) | 5.9 µM (inactive) | 3.01 µM (inactive) | 4.89 µM (inactive) | 3.63 µM (inactive) | 3.25 µM (inactive) | 9.16 µM (inactive) | 3.96 µM (inactive) | 4.47 µM (inactive) | 8.18 µM (inactive) | 8.81 µM (inactive)
5 | C[C@H]1CC(=O)C[C@@H]2CC[C@@H]3[C@H](CC[C@]4(C)C(OC(=O)c5cccc6c(=O)c7ccccc7[nH]c56)CC[C@@H]34)[C@]21C (stereo not given in full) | 92.5 µM (inactive) | 31.2 µM (inactive) | 23.2 µM (inactive) | 31.3 | 33.3 µM (inactive) | 14.3 µM (inactive) | 10 µM (inactive) | 32.5 µM (inactive) | 36.6 µM (inactive) | 21.6 µM (inactive) | 23.8 µM (inactive) | 4.8 µM (inactive) | 22 µM (inactive) | 46.8 µM (inactive) | 39.2 µM (inactive) | 28.6 µM (inactive) | 5.28 µM (inactive) | 30.4 µM (inactive) | 16 µM (inactive) | 38.5 µM (inactive)
6 | COC1(OC)C[C@H](C)[C@@]23O[C@]24C2=CC(=O)C=CC2=N[C@H]3C#C/C=C\C#C[C@]14O | 0.671 µM (active) | 0.3 µM (active) | 0.71 µM (active) | 0.432 | 0.364 µM (active) | 0.0431 µM (active) | 0.284 µM (active) | 0.266 µM (active) | 0.787 µM (active) | 1.19 µM (inactive) | 0.659 µM (active) | 0.032 µM (active) | 0.541 µM (active) | 0.904 µM (active) | 0.537 µM (active) | 1.66 µM (inactive) | 0.0187 µM (active) | 0.474 µM (active) | 0.532 µM (active) | 0.724 µM (active)
7 | O=S(=O)(O)C(CO)c1ccccc1.O=S(=O)(O)Cc1ccccc1 (stereo not given) | > 100 µM (inactive) | > 100 µM (inactive) | > 100 µM (inactive) | > 100 | > 100 µM (inactive) | 5.35 µM (inactive) | > 100 µM (inactive) | > 100 µM (inactive) | > 100 µM (inactive) | > 100 µM (inactive) | > 100 µM (inactive) | > 100 µM (inactive) | > 100 µM (inactive) | 96.4 µM (inactive) | > 100 µM (inactive) | > 100 µM (inactive) | > 100 µM (inactive) | > 100 µM (inactive) | > 100 µM (inactive) | > 100 µM (inactive)
